# Laboratory results: US20100260689A1, “REDUCING SHAVING FREQUENCY” (BEIERSDORF AG, priority 2007, published 2010)
# Test: Cutting force during the shaving of human hair after 24 hours of exposure time (universal test apparatus with cutting force adapter)
# Details: products A-D in artificial sweat solution, five hair fibers cut, 90° cutting angle
# Protocol: The measurements are thereby carried out on a universal test apparatus with cutting force adapter with four friction bearings and recorded by means of TestXpert software.
# Five hair fibers were cut for the measurement.
# Due to the influence of the cross section of the hair fiber, a preliminary grouping of the hair fibers to be cut is indispensable, which ensures that the products to be compared were carried out on hair fibers with the same cross section so that relative results are obtained.
# Five hair fibers fixed on one side are cut with the aid of a commercially available blade (single-blade razor with replaceable blade) at a constant speed. The blade is thereby clamped in an adapter specially produced for this purpose, which ensures a guidance of the blade with the aid of four friction bearings. The determination of the cutting force is carried out by maximum force detection. At the same time, the friction force of the friction bearings is recorded during each measurement.
# Measurement parameters: Measurement speed: 100 mm/min • Cutting angle: 90° • Blade grind: approx. 12°
# The tested products A-D (see FIG. 1) comprise an artificial sweat solution composed of […]
# In a further comparative test, the cutting force on human hair was measured after 24 hours of exposure time of three preparations (FIG. 2). […]
substance,measurement,setting,value
Aluminum chlorohydrate [aluminum chlorohydrates],cutting force during the shaving of human hair,FIG. 1,reduction of the cutting force
same,cutting force during the shaving of human hair,"FIG. 1, listed as ACH",cutting force reduction
